Data set [1] is described as follows: in vivo. To be noted: male, C57BL/6J, mouse, po, 5 mg/kg. As for the experimental part: Male C57BL/6J mouse was use in the in vivo distribution assay. The sample of brain, spinal cord and serum were collected for the drug distribution calculation.
Before commencing the study, the mice were acclimated to the test facility for at least 3 days. During this period, their general health was assessed by veterinary staff or other authorized personnel. The mice were housed in groups of up to four per cage in polysulfone cages, using either certified aspen shaving bedding or corncob bedding. This bedding was regularly tested for environmental contaminants by the manufacturer. The facility's environment was carefully controlled to maintain a temperature range of 20-26° C., relative humidity between 40 to 70%, and a 12-hour light/12-hour dark cycle, although this cycle can be interrupted for study-related activities. Temperature and humidity were continuously monitored by the Vawasala ViewLinc Monitoring system.
For dosing, an appropriate amount of the compounds was accurately weighed and mixed with a suitable volume of vehicle to achieve a clear solution. This process may require vertexing or sonication in a water bath. The animals were dosed within four hours of formulation preparation. Samples from each formulation were then collected for dose validation using either LC/UV or LC-MS/MS analysis.
Oral gavage was employed for dosing following the facility's SOPs, with the dose volume based on the animal's body weight measured on the morning of the dosing day.
Blood collections were performed from the saphenous vein or another suitable site, with approximately 0.1 mL collected per time point into pre-chilled commercial EDTA-K2 tubes. The samples were kept on wet ice until centrifugation at 4° C. and 3,200 g for 10 minutes. The plasma was then transferred into pre-labeled 96-well plates or polypropylene tubes, quick-frozen over dry ice, and stored at −60° C. or lower until LC-MS/MS analysis. […]
We calculated AUC ratio from the equation AUC ratio=Tissue AUC0-last/plasma AUC0-last. […]

Data set [2] deals with plasma proteins. Kind of data set: in vitro. Particulars: male, C57BL/6J, mouse, pH 7.4. As for the experimental part: (§1) The experiment utilized a HT-Dialysis plate (HTD 96 b) and a dialysis membrane with a molecular weight cutoff of 12-14 kDa. The plasma was derived from male C57BL/6J mice, treated with EDTA-K2 as an anticoagulant. The experimental procedure commenced with plasma thawing under cold tap water, followed by centrifugation at 3220×g for 5 minutes to eliminate clots, and pH adjustment to 7.4+0.1.
(§2) Dialysis membranes were initially hydrated in ultra-pure water for about one hour and then treated in a 20:80 ethanol-water mixture for 20 minutes. These prepared membranes could be used immediately or stored at 2-8° C. for up to a month. Membranes were rinsed in ultra-pure water before use.
(§3) Test and control compounds were prepared at a 400 µM concentration by diluting stock solutions with DMSO. Working solutions were further diluted to create 2 μM loading matrix solutions, which were thoroughly mixed. In the assay, 50 μL aliquots of these solutions were dispensed in triplicate into a Sample Collection Plate, balanced with blank PBS to a final volume of 100 µL per well. A stop solution containing acetonitrile, tolbutamide, and labetalol was added, and samples were mixed and cooled at 2 to 8° C.
(§4) During the dialysis, 100 μL aliquots from the loading matrix were placed in the dialysis well's donor side, matched with an equal volume of PBS on the receiver side, and incubated at 37° C. for 4 hours. Post-dialysis, samples from both sides were collected, balanced to 100 μL with corresponding blank fluids, treated with stop solution, vortexed, and centrifuged to prepare for LC-MS/MS analysis.
(§5) Data analysis involved calculating the percentages of Unbound, Bound, and Recovery of the compounds post-dialysis. % Unbound was calculated as the ratio of the compound's peak area on the receiver side to its internal standard, reflecting the fraction that crossed the membrane. % Bound was the complement of % Unbound, representing the fraction retained on the donor side. % Recovery was determined from the peak area ratios on both sides of the membrane, assessing the dialysis efficiency in retaining the compound. These metrics provided insights into the compound's free, bound, and recoverable quantities, elucidating its behavior in the dialysis system.

Data set [3] can be described thus: in vitro. To be noted: male, C57BL/6J, mouse, plasma, pH 7.4. As to the method: as §1, §2, §3, §4, §5
The subject of data set [4] is brain proteins. Kind of data set: in vitro. To be noted: for % Undiluted Unbound (n = 3): brain homogenate, 4 h, 2 μM. As to the method:
The initial preparation of the dialysis membrane involved thawing brain homogenate in a water bath at room temperature and subsequently heating it at 37° C. for 10 minutes. The dialysis setup utilized was from HT Dialysis LLC, featuring a HT-Dialysis plate (Model HTD 96 b) and a dialysis membrane with a molecular weight cutoff of 12-14 kDa.
The membrane underwent a comprehensive pretreatment which included hydration in ultra-pure water at room temperature for approximately one hour. This was followed by separation and immersion in a 20:80 ethanol:water solution for about 20 minutes. After this treatment, the membranes were either used immediately or stored at 2-8° C. for up to one month, with a final rinse in ultra-pure water prior to experimental use.
For compound preparation, test and control substances were first dissolved to create 400 μM working solutions by mixing 4 μL of stock solution with 96 μL of DMSO. These working solutions were then further diluted to 2 μM in a blank matrix by combining 3 μL of the prepared solution with 597 μL of matrix, ensuring thorough mixing.
During the assay, 50 μL aliquots of the 2 μM compound-matrix mixture were dispensed in triplicate into a Sample Collection Plate. Each aliquot was paired with an equal volume of blank PBS to standardize the total volume to 100 μL per well at a 1:1 matrix to PBS ratio. A stop solution comprising 500 μL of acetonitrile with tolbutamide and labetalol at 250 nM each was added to stabilize the samples at TO. The samples were then shaken at 800 rpm for 10 minutes and stored at 2-8° C.
The dialysis procedure included assembling the dialysis device according to the manufacturer's specifications, loading the matrix aliquots into the donor side of the dialysis wells, and conducting the dialysis under a humidified atmosphere with 5% CO2 at 37° C. for 4 hours.
Post-dialysis, 50 μL samples were collected from both the receiver and donor sides into new 96-well plates. Volumes were adjusted to 100 μL by adding an equivalent amount of the opposite blank matrix or PBS. The samples were prepared for LC-MS/MS analysis after thorough vertexing and centrifugation. Blank control samples were prepared and processed similarly to mirror the test conditions.
Data analysis involved calculating the percentages of undiluted unbound and bound fractions, and recovery of the compounds.

Data set [5] concerns MC38 tumor. As to the method:
The cells in exponential growth phase were harvested and quantitated by cell counter before tumor inoculation. […] The date of randomization was denoted as day 0.
After tumor cells inoculation, the animals were checked daily for morbidity and mortality. […] Mortality and observed clinical signs were recorded for individual animals in detail. […] Dosing as well as tumor and body weight measurements were conducted in a Laminar Flow Cabinet. The body weights and tumor volumes were measured by using StudyDirector™ software (version 3.1.399.19).

For data set [6] the following is noted: mouse, in vivo, po, 1 mg/kg.
Description: Initially, mice were acclimatized to the testing environment for 8 hours the day before the experiment, followed by at least 2 hours of habituation on the day of the test. The mice were then grouped randomly based on their body weight into six per group, ensuring a balanced distribution for the administration of the drug, which was dissolved in 20% HP-β-CD in water.
The locomotor activity was monitored by placing the mice in the center of a test box, with a video tracking system measuring the distance traveled every 5 minutes for 60 minutes. The testing began at T=0 minutes, immediately after administering the vehicle or compounds, and concluded at T=60 minutes. For data analysis, Prism 8.3.0 software was utilized, employing Two-way ANOVA followed by Bonferroni's multiple comparison test to analyze distance variations across different time points and One-way ANOVA followed by Dunnett's multiple comparisons test for assessing the total distance covered by the groups. A significance level of p<0.05 was established for determining significant differences.
Data set [7] deals with P-glycoprotein (P-gp) (Homo sapiens, UniProt P08183). Kind of data set: in vitro. Particulars: MDCK-MDR1. As to the method: MDR1-MDCK II cells (obtained from Piet Borst at the Netherlands Cancer Institute) were seeded onto Polycarbonate membranes (PC) in 96-well insert systems at 3.33×10^5 cells/mL until to 4-7 days for confluent cell monolayer formation.
Selected α2AR agonist from table 3s were diluted with the transport buffer (HBSS with 10.0 mM Hepes, pH7.4) from DMSO stock solution to a concentration of 2 μM (DMSO<1%) and applied to the apical or basolateral side of the cell monolayer. […] Permeation of the test compounds from A to B direction and/or B to A direction was determined in duplicate. Digoxin was tested at 10.0 μM from A to B direction and B to A direction in duplicate. The plate was incubated for 2.5 hours in CO2 incubator at 37.0±1.0° C., with 5.0% CO2 at saturated humidity without shaking. In addition, the efflux ratio of each compound was also determined. Test and reference compounds were quantified by LC/MS/MS analysis based on the peak area ratio of analyte/IS.
After transport assay, lucifer yellow rejection assay was applied to determine the cell monolayer integrity. Buffers were removed from both apical and basolateral chambers, followed by the addition of 75 μL of 100 μM lucifer yellow in transport buffer and 250 μL transport buffer in apical and basolateral chambers, respectively. The plate was incubated for 30 minutes at 37.0° C. with 5.0% CO2 and 95.0% relative humidity without shaking. After 30 minutes incubation, 20 μL of lucifer yellow samples were taken from the apical sides, followed by the addition of 60 μL of transport Buffer. And then 80 μL of lucifer yellow samples were taken from the basolateral sides. The relative fluorescence unit (RFU) of lucifer yellow was measured at 425/528 nm (excitation/emission) with an Envision plate reader.
The apparent permeability coefficient Papp (cm/s) was calculated using the equation: […]
wherein dCr/dt is the cumulative concentration of compound in the receiver chamber as a function of time (μM/s); Vr is the solution volume in the receiver chamber (0.075 mL on the apical side, 0.25 mL on the basolateral side); A is the surface area for the transport, i.e. 0.143 cm2 for the area of the monolayer; and C0 is the initial concentration in the donor chamber (μM).
The efflux ratio was calculated using the equation: […]

Setting [8] is: D17, G2: 5 mg/kg p.o. QD Day 0~Day 3, then 2 mg/kg QD Day 4~Day 17.

SMILES strings stand for the structures. Where a name gives a salt, the structure may show the parent alone.

By fraction unbound is commonly meant the share of the substance not bound to proteins or other matrix. Read a high fraction unbound as weak binding.

P-glycoprotein (P-gp), sequence (P08183 whole entry): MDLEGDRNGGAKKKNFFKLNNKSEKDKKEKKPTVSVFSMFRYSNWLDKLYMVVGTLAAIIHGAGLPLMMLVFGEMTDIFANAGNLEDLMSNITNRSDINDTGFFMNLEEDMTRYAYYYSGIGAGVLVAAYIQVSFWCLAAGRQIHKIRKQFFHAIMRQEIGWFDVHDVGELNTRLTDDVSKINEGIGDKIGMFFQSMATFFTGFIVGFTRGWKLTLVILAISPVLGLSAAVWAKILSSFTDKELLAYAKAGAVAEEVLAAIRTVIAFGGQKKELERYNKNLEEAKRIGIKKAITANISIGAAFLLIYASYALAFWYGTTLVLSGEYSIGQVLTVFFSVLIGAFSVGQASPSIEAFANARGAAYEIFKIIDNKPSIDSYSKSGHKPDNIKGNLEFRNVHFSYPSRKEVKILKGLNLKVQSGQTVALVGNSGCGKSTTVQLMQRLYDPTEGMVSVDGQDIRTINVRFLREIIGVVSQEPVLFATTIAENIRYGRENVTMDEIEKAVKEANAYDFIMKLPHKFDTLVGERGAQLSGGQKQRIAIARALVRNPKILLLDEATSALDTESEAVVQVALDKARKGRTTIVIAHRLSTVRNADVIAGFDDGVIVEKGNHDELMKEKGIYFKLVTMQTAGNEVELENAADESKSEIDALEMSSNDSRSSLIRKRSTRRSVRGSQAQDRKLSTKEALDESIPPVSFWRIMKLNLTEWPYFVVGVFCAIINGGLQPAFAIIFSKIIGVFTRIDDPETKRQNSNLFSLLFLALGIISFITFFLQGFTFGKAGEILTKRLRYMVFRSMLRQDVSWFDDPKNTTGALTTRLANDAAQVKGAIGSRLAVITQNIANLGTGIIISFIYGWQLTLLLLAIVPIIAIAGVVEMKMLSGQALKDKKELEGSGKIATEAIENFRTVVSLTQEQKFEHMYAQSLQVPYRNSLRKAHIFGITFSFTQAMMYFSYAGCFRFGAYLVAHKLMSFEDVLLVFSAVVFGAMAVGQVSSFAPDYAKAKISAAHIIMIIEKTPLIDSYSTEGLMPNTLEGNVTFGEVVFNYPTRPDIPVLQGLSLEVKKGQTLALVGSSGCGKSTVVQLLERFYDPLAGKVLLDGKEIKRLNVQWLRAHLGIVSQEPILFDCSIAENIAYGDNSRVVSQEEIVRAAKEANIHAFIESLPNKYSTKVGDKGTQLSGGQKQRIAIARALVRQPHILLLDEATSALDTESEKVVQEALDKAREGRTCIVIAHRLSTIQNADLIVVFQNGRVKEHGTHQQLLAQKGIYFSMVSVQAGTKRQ

For the compound `Clc1cccc(Cl)c1N=C1NCCN1` [Clonidine HCl, clonidine HCl], in data set [1], the Kp came to 2.27 and the Kp uu is 0.739. The compound further registered a recovery at 4 h, 2 μM in data set [2] of 93.2%. This compound also returned a fraction unbound at 4 h, 2 μM in data set [3] of 0.708. Moreover, in data set [4], the recovery at 4 h, 2 μM amounted to 105% and the “% Undiluted Unbound (n = 3)” value was 23.0%.

As for `Clc1cccc(Cl)c1N=C1NCCN1` [Clonidine, clonidine], in data set [5] (setting [8]), the “T/C (%)” value was determined as 27.38%, the “TGI (%)” value is 72.62% and the “Tumor volume (mm^3) (mean ± SEM)” value was determined as 766.52 ± 147.17 mm^3. The “state of mice at high dose” value in data set [5] (G2 group, 5 mg/mL, Day 0-3, p.o.) is recorded as “poor state of mice”. In addition, the “sedation (total distance travelled 0-60 min)” value in data set [6] was “significant sedation”.

With `Cc1cccc([C@H](C)c2cnc[nH]2)c1C` [Dexmedetomidine HCl, dexmedetomidine HCl], the Kp in data set [1] was determined as 1.26. The recovery at 4 h, 2 μM in data set [2] worked out at 88.9%. For the same compound, the fraction unbound at 4 h, 2 μM in data set [3] turned out to be 0.068. Further, in data set [4], the recovery at 4 h, 2 μM was determined as 93.8% and the “% Undiluted Unbound (n = 3)” value was 6.3%.

With `Oc1ccc2c(c1)C(Cc1c[nH]cn1)CC2` (centres unmarked) [Fadolmidine, reference compound], in data set [7], the Efflux ratio is 0.80.
